Data on 15 compounds can be found in patent US11066369B2, “N-(pyridin-2-yl)pyridine-sulfonamide derivatives and their use in the treatment of disease” (Novartis AG, priority 2016, dated 2021).

The target of assay [1] is T1, horseradish peroxidase (HRP) tagged delF508-CFTR (Homo sapiens, UniProt P13569, DEL508-508).
T1 construct: expressed in transfected cells
Kind of assay: Measurement of delF508-CFTR-HRP surface expression in CFBE41o- cells.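 On DelF508-CFTR-HRP Amax %: percent efficacy relative to reference corrector lumacaftor.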 Particulars: delF508-CFTR-HRP surface expression, CFBE41o- cells; for Emax: read-out: DelF508-CFTR-HRP Amax %; for EC50: read-out: DelF508-CFTR-HRP EC50. In kind it is cell-based. The essentials:
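Surface-trafficked delF508-CFTR detected via extracellular HRP tag, read as luminescence from a membrane-impermeant substrate in CFBE41o- cells. Cells pre-induced 48h with 500 ng/mL doxycycline, then exposed 24h at 37° C to a 10-point, 3-fold dilution series from 10 μM (DMSO ≤0.5%). Triplicate dose-responses fitted logistically for EC50 after per-plate normalization; fold change versus reference compound.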

The next assay has as its target T2, delF508-CFTR (Homo sapiens, UniProt P13569, DEL508-508).
T2 construct: functional activity of the CFTR channel (Chloride ion transport) in patient derived primary human bronchial epithelial cells; host or cells: patient-derived primary human bronchial epithelial cells (delF508-CFTR)
The assay can be described thus: Measurement of delF508-CFTR functional activity in primary human bronchial epithelial cells (HBECs) using Multi-Transepithelial Clamp Circuit (MTECC-24) assay. The assay is classed as cell-based. Particulars: primary CF HBECs; for MTECC24 CFHBEC- Amax %: test compound added 24h before assay plus potentiator, relative to reference combination (2 μM corrector + 0.5 μM potentiator); for EC50: test compound added 24h before assay, in the presence of potentiator, mean of at least two replicates, read-out: MTECC24 CFHBEC- EC50. From the text:
[formula] Measurement of delF508-CFTR Functional Activity in Primary Human Bronchial Epithelial Cells (HBECs) Using Multi-Transepithelial Clamp Circuit (MTECC-24) Assay
This assay measures the functional activity of the CFTR channel (Chloride ion transport) in patient derived primary human bronchial epithelial cells with forskolin activation and in the presence of the CFTR corrector/potentiator combo.
Primary human delF508-CFTR bronchial epithelial cells were purchased from Asterand and cultured according to previously established methods (Fulcher et al. (2005) Methods Mol Med 107: 183-206). Briefly, vendor supplied cells were rapidly defrosted and added to a T175 flask in 50 mL growth media (Lonza BEBM media with Lonza BEGM singlequots). Media was replaced after 24h and then cells were fed every other day until cells were 80-90% confluent, at which point cells were cryopreserved. These P1 vials were thawed at 37° C. as needed and added to T175 flasks in 50 mL growth media at 5×10^5 cells/flask. Media was replaced after 24h, and then cells were fed every other day until 80-90% confluent. Cells were lifted with 5 mL accutase at 37° C. for 5 minutes, centrifuged at 1000 rpms for 5 min (300 g), and resuspended in differentiation media (50% BEBM in DMEM, BEGM singlequots, all trans retinoic acid (5×10^−8M)). Cells were then counted and cell suspension was added to collagen coated inserts at 3×10^4 cells/insert in 0.15 mL with 0.5 mL differentiation media on the basolateral side.
Apical and basolateral media were replaced on alternate days, and following day 7 (or when confluent plus 2 days), air liquid interface was established for approximately two weeks by removal of apical media. One day prior to use on the MTECC24 system (EP-Devices, EP Design, Belgium), 0.15 mL of warmed (37° C.) PBS was added to the apical surface of the cultures and returned to humidifier (37° C., 5% CO2 incubator) for 30 min before aspirating the apical surface to remove any mucus.
Compound treatments were then prepared. Compound dilutions, typically a 10 point concentration response with 1 in 3 dilution steps, were made in 100% DMSO before dilution 1 in 1000 into differentiation medium with a final DMSO concentration of 0.1% or 0.2% for the study. Compound containing medium was then transferred into the wells of a 24 well plate at 0.5 mL per well and warmed for 30 min in a 37° C. incubator prior to transferring washed inserts into the compound containing plates. Cells were incubated in compound containing medium (basolateral only) for 24h prior to measurement in the MTECC24 system.
Following 24 hr treatment, compound dilutions were prepared again, diluted 1 in 1000 into 37° C. assay medium (F-12 Coon's modified, 20 mM HEPES pH7.4 with TRIS Base, No FCS or bicarbonate). Cells which were treated for 24h with test compound were then transferred into plates containing 0.75 mL compound treatment in assay medium (basolateral) and 0.25 mL of the compound containing assay medium was added to the apical surface. The plates were then transferred to the heated plate compartments of the MTECC24 system for 45 min prior to measurements (this can also be done in a non-CO2 37° C. humidified incubator). Basolateral temperature should not exceed 36.5° C. and apical temperature should be approximately 35.5° C.
Modulators were added sequentially as follows while the MTECC24 instrument recorded the equivalent short circuit current (Ieq):
Prior to dilution into F-12 medium the stocks are as follows:
Amiloride stock is 10 mM in H2O
Forskolin Stock is 10 mM in 100% DMSO
(S)-3-amino-6-methoxy-N-(3,3,3-trifluoro-2-hydroxy-2-methylpropyl)-5-(trifluoromethyl)picolinamide is 0.5 mM stock in 100% DMSO
INH-172 (4-[[4-Oxo-2-thioxo-3-[3-trifluoromethyl)phenyl]-5-thiazolidinylidene]methyl]benzoic acid) stock is 30 mM in 100% DMSO
The data was normalized using the median signal from wells treated with 0.1% DMSO as a baseline. […]

Structures are written as SMILES. Where a name gives a salt, the structure may show the parent alone.

T1 sequence (P13569 with tags, fused parts or gaps DEL508-508): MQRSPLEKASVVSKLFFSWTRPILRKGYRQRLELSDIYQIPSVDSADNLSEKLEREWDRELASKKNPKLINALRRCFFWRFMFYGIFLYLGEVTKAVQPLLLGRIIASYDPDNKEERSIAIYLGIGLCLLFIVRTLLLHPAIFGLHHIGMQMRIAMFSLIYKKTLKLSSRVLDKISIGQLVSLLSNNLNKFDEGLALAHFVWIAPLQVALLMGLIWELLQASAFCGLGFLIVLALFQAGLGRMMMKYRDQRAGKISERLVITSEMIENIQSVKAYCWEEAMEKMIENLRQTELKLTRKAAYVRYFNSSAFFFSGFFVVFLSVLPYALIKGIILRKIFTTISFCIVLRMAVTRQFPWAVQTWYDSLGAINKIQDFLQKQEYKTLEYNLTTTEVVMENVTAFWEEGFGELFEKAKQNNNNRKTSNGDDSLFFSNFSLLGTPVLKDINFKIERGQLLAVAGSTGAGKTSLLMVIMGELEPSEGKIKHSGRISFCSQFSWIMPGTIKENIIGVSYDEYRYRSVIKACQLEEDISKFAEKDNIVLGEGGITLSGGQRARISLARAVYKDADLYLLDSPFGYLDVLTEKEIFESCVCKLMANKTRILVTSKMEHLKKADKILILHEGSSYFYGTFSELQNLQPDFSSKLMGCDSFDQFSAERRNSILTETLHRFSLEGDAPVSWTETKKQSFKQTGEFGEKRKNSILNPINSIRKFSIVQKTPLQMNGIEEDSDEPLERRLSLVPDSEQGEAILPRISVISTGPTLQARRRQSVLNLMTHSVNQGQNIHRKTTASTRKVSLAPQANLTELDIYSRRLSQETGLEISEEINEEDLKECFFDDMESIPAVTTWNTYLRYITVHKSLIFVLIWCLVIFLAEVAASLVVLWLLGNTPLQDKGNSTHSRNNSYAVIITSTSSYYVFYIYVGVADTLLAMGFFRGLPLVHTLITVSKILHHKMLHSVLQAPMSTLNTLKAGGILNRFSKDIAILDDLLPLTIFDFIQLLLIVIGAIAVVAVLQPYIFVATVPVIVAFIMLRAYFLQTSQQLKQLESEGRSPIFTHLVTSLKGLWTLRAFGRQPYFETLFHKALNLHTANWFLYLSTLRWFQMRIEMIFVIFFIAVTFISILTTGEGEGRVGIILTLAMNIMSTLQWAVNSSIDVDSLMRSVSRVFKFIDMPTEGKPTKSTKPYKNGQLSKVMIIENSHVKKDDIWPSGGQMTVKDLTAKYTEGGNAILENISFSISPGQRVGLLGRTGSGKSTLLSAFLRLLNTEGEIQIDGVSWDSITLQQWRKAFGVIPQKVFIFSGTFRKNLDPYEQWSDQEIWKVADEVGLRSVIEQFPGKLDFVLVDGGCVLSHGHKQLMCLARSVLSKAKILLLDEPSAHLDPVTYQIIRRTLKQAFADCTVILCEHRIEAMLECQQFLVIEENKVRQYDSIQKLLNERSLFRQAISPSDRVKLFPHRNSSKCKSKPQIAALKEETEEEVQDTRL
T2 sequence (P13569 with tags, fused parts or gaps DEL508-508): as above

As for `Cc1cccc(C)c1-c1nc(NS(=O)(=O)c2cccc(O[C@H]3CC[C@H](C(=O)O)CC3)n2)ccc1Cl` [Example 130, (1r,4r)-4-((6-(N-(5-chloro-6-(2,6-dimethylphenyl)pyridin-2-yl)sulfamoyl)pyridin-2-yl)oxy)cyclohexane-1-carboxylic Acid], in assay [1], the Emax stood at 157% and the EC50 amounted to 2.92 µM. Further, on delF508-CFTR, the “MTECC24 CFHBEC- Amax %” value is reported as 37.9% and the EC50 was 0.0841 µM.
The matching figures for `Nc1cccc(S(=O)(=O)Nc2ccc(Cl)c(-c3cc(C(F)(F)F)ccc3Cl)n2)n1` [Example 43, 6-amino-N-(5-chloro-6-(2-chloro-5-(trifluoromethyl)phenyl)pyridin-2-yl)pyridine-2-sulfonamide]: 361%, 2.12 µM, 54.2% and 0.0633 µM.
The matching figures for `Cc1ccc(F)cc1-c1nc(NS(=O)(=O)c2cccc(N3CCN[C@@H](C)C3)n2)ccc1C(F)(F)F` [Example 177, (S)—N-(6-(5-fluoro-2-methylphenyl)-5-(trifluoromethyl)pyridin-2-yl)-6-(3-methylpiperazin-1-yl)pyridine-2-sulfonamide Hydrochloride]: 447%, 2.81 µM, 79.7% and 0.232 µM.
Consider `Cc1ccccc1-c1nc(NS(=O)(=O)c2cccc(N3CCN[C@H](C)C3)n2)ccc1C(F)(F)F` [Example 167, (R)-6-(3-methylpiperazin-1-yl)-N-(6-(o-tolyl)-5-(trifluoromethyl)pyridin-2-yl)pyridine-2-sulfonamide Hydrochloride], for which, in assay [1], the Emax amounted to 317% and the EC50 was 3.71 µM. On delF508-CFTR, the “MTECC24 CFHBEC- Amax %” value came to 67.6% and the EC50 was determined as 0.0855 µM.
For `Cc1ccccc1-c1nc(NS(=O)(=O)c2cccc(N[C@@H]3CCCNC3)n2)ccc1C(F)(F)F` [Example 104, (R)-6-(piperidin-3-ylamino)-N-(6-(o-tolyl)-5-(trifluoromethyl)pyridin-2-yl)pyridine-2-sulfonamide Hydrochloride], the EC50 in assay [1] came out at 2.14 µM. On delF508-CFTR, the “MTECC24 CFHBEC- Amax %” value was determined as 73.4% and the EC50 is 0.0245 µM.
Consider `Cc1ccccc1-c1nc(NS(=O)(=O)c2cccc(N3CC4C(N)C4C3)n2)ccc1C(F)(F)F` (centres unmarked) [Example 107, 6-(6-amino-3-azabicyclo[3.1.0]hexan-3-yl)-N-(6-(o-tolyl)-5-(trifluoromethyl)pyridin-2-yl)pyridine-2-sulfonamide Hydrochloride], for which, in assay [1], the Emax was determined as 756% and the EC50 was 1.99 µM. At delF508-CFTR, the “MTECC24 CFHBEC- Amax %” value was 72.2% and the EC50 amounted to 0.111 µM.
For `Cc1ccccc1-c1nc(NS(=O)(=O)c2cccc(N[C@@H]3CCOC[C@H]3O)n2)ccc1C(F)(F)F` [Example 274, 6-(((3S,4R)-3-hydroxytetrahydro-2H-pyran-4-yl)amino)-N-(6-(o-tolyl)-5-(trifluoromethyl)pyridin-2-yl)pyridine-2-sulfonamide], in assay [1], the Emax came out at 779% and the EC50 stood at 1.87 µM. Also, at delF508-CFTR, the “MTECC24 CFHBEC- Amax %” value is 77.0% and the concentration giving a half-maximal response (EC50) came out at 0.0033 µM.
The matching figures for `COc1ccc(F)cc1-c1nc(NS(=O)(=O)c2cccc(N)n2)ccc1Cl` [Example 62, 6-amino-N-(5-chloro-6-(5-fluoro-2-methoxyphenyl)pyridin-2-yl)pyridine-2-sulfonamide]: 240%, 1.73 µM, 46.1% and 0.0512 µM.
Regarding `Cc1ccccc1-c1nc(NS(=O)(=O)c2cccc(N3C[C@@H]4C[C@H]3CN4)n2)ccc1C(F)(F)F` [Example 203, 6-((1S,4S)-2,5-diazabicyclo[2.2.1]heptan-2-yl)-N-(6-(o-tolyl)-5-(trifluoromethyl)pyridin-2-yl)pyridine-2-sulfonamide hydrochloride], in assay [1], the Emax amounted to 298% and the EC50 was 2.98 µM. Further, on delF508-CFTR, the “MTECC24 CFHBEC- Amax %” value is 80.9% and the half-maximal effective concentration (EC50) turned out to be 0.0233 µM.
The matching figures for `Cc1c(F)cccc1-c1nc(NS(=O)(=O)c2cccc(N3CCC(C)(C(=O)O)CC3)n2)ccc1C(F)(F)F` [Example 263, 1-(6-(N-(6-(3-fluoro-2-methylphenyl)-5-(trifluoromethyl)pyridin-2-yl)sulfamoyl)pyridin-2-yl)-4-methylpiperidine-4-carboxylic Acid]: 481%, 2.87 µM, 54.4% and 0.0083 µM.
Regarding `Cc1ccc(F)cc1-c1nc(NS(=O)(=O)c2cccc(O[C@@H]3COC[C@@H]3O)n2)ccc1Cl` [Example 289, N-(5-chloro-6-(5-fluoro-2-methylphenyl)pyridin-2-yl)-6-(((3R,4S)-4-hydroxytetrahydrofuran-3-yl)oxy)pyridine-2-sulfonamide], in assay [1], the Emax was 450% and the 50% effective concentration (EC50) was determined as 2.36 µM. Further, at delF508-CFTR, the “MTECC24 CFHBEC- Amax %” value came to 50.5% and the half-maximal effective concentration (EC50) was determined as 0.0121 µM.
Take `Cc1cccc(C)c1-c1cc(C(F)(F)F)cc(NS(=O)(=O)c2cccc(N3CCNCC3)n2)n1` [Example 133, N-(6-(2,6-dimethylphenyl)-4-(trifluoromethyl)pyridin-2-yl)-6-(piperazin-1-yl)pyridine-2-sulfonamide Hydrochloride]: in assay [1], the Emax came to 570% and the EC50 turned out to be 2.03 µM. Further, on delF508-CFTR, the “MTECC24 CFHBEC- Amax %” value is given as 71.2% and the EC50 came to 0.0979 µM.
Turning to `Cc1ccccc1-c1nc(NS(=O)(=O)c2cccc(N3CC(O)C3)n2)ccc1C(F)(F)F` [Example 233, 6-(3-hydroxyazetidin-1-yl)-N-(6-(o-tolyl)-5-(trifluoromethyl)pyridin-2-yl)pyridine-2-sulfonamide], in assay [1], the Emax worked out at 586% and the EC50 was 1.53 µM. For the same compound, at delF508-CFTR, the “MTECC24 CFHBEC- Amax %” value is reported as 85.3% and the EC50 worked out at 0.0052 µM.
`Cc1ccc(F)cc1-c1nc(NS(=O)(=O)c2cccc(N3CCN[C@H](CO)C3)n2)ccc1C(F)(F)F` [Example 175, (S)—N-(6-(5-fluoro-2-methylphenyl)-5-(trifluoromethyl)pyridin-2-yl)-6-(3-(hydroxymethyl)piperazin-1-yl)pyridine-2-sulfonamide Hydrochloride]: in assay [1], the Emax came to 530% and the EC50 was 3.27 µM. At delF508-CFTR, the “MTECC24 CFHBEC- Amax %” value worked out at 63.4% and the EC50 came out at 0.281 µM.
Taken in the same sequence, the figures for `COc1ccc(Cl)c(-c2nc(NS(=O)(=O)c3cccc(N4CC(O)C4)n3)ccc2Cl)c1` [Example 228, N-(5-chloro-6-(2-chloro-5-methoxyphenyl)pyridin-2-yl)-6-(3-hydroxyazetidin-1-yl)pyridine-2-sulfonamide] were 405%, 2.99 µM, 87.0% and 0.0381 µM.
